Laboratory results: ChEMBL document CHEMBL5260813, “An overview on the recent developments of 1,2,4-triazine derivatives as anticancer compounds” (Eur J Med Chem, 2017)

What was measured:
[1] = tested on: KB; experiment: Antiproliferative activity against human KB cells assessed as inhibition of cell growth under hypoxia condition; format: functional, cell-based
[2] = Ratio of IC50 for antiproliferative activity against human MCF7 cells assessed as inhibition of cell growth under normoxia condition to IC50 for antiproliferative activity against human MCF7 cells assessed as inhibition of cell growth under hypoxia condition; format: functional
[3] = Ratio of IC50 for antiproliferative activity against human HL-60 cells assessed as inhibition of cell growth under normoxia condition to IC50 for antiproliferative activity against human HL-60 cells assessed as inhibition of cell growth under hypoxia condition; format: functional
[4] = Ratio of IC50 for antiproliferative activity against human Eca-109 cells assessed as inhibition of cell growth under normoxia condition to IC50 for antiproliferative activity against human Eca-109 cells assessed as inhibition of cell growth under hypoxia condition; format: functional
[5] = Ratio of IC50 for antiproliferative activity against human PC-3 cells assessed as inhibition of cell growth under normoxia condition to IC50 for antiproliferative activity against human PC-3 cells assessed as inhibition of cell growth under hypoxia condition; format: functional
[6] = Ratio of IC50 for antiproliferative activity against human Bel-7402 cells assessed as inhibition of cell growth under normoxia condition to IC50 for antiproliferative activity against human Bel-7402 cells assessed as inhibition of cell growth under hypoxia condition; format: functional
[7] = tested on: HCT-116; experiment: Antiproliferative activity against human HCT-116 cells assessed as inhibition of cell growth under hypoxic condition by MTT assay; format: functional, cell-based
[8] = tested on: MCF7; experiment: Antiproliferative activity against human MCF7 cells assessed as inhibition of cell growth under hypoxic condition by MTT assay; format: functional, cell-based
[9] = tested on: NCI-H460; experiment: Antiproliferative activity against human NCI-H460 cells assessed as inhibition of cell growth under hypoxic condition by MTT assay; format: functional, cell-based

SMILES | Ratio IC50 [2] | Ratio IC50 [3] | Ratio IC50 [4] | Ratio IC50 [5] | Ratio IC50 [6] | IC50 [7] | IC50 [8] | IC50 [9] | further results
CCCOCNc1n[n+]([O-])c2ccccc2[n+]1[O-] |  |  |  |  |  |  |  |  | IC50 [1]: 3.74 µM
CCCCOCNc1n[n+]([O-])c2ccccc2[n+]1[O-] |  |  |  |  |  |  |  |  | IC50 [1]: 2.32 µM
CCCCCOCNc1n[n+]([O-])c2ccccc2[n+]1[O-] |  |  |  |  |  |  |  |  | IC50 [1]: 2.9 µM
CC(C)CCOCNc1n[n+]([O-])c2ccccc2[n+]1[O-] |  |  |  |  |  |  |  |  | IC50 [1]: 2.11 µM
[O-][n+]1nc(NCOC2CCCCC2)[n+]([O-])c2ccccc21 |  |  |  |  |  |  |  |  | IC50 [1]: 1.2 µM
CCCCCCCOCNc1n[n+]([O-])c2ccccc2[n+]1[O-] |  |  |  |  |  |  |  |  | IC50 [1]: 3.49 µM
[O-][n+]1nc(NCOCc2ccccc2)[n+]([O-])c2ccccc21 |  |  |  |  |  |  |  |  | IC50 [1]: 4.14 µM
[O-][n+]1nc(NCOCc2ccc(Cl)cc2)[n+]([O-])c2ccccc21 |  |  |  |  |  |  |  |  | IC50 [1]: 2.19 µM
CC(OCNc1n[n+]([O-])c2ccccc2[n+]1[O-])c1ccccc1 (centres undefined) |  |  |  |  |  |  |  |  | IC50 [1]: 2.81 µM
O=[N+]([O-])c1cccc(COCNc2n[n+]([O-])c3ccccc3[n+]2[O-])c1 |  |  |  |  |  |  |  |  | IC50 [1]: 3.44 µM
CCCOCNc1n[n+]([O-])c2cc(OC)ccc2[n+]1[O-] |  |  |  |  |  |  |  |  | IC50 [1]: 2.54 µM
CCCCCOCNc1n[n+]([O-])c2cc(OC)ccc2[n+]1[O-] |  |  |  |  |  |  |  |  | IC50 [1]: 2.51 µM
COc1ccc2c(c1)[n+]([O-])nc(NCOCc1ccccc1)[n+]2[O-] |  |  |  |  |  |  |  |  | IC50 [1]: 4.47 µM
[O-][n+]1nc(NCc2ccccc2)[n+]([O-])c2ccccc21 | 1.9 | 4.2 | 5.1 | 2.3 | 2.8 |  |  |  | 
CCNc1n[n+]([O-])c2ccccc2[n+]1[O-] | 2.1 | 1.6 | 5.4 | 4.4 | 2.2 |  |  |  | 
CCNc1n[n+]([O-])c2cc(Cl)ccc2[n+]1[O-] | 3.84 | 5.1 | 2.7 |  | 2.4 |  |  |  | 
CCNc1n[n+]([O-])c2cc(OC)ccc2[n+]1[O-] |  |  | 1.12 | 1.2 | 1.07 |  |  |  | 
[O-][n+]1nc(Nc2ccccc2)[n+]([O-])c2ccccc21 | 2.1 | 2.5 | 4.1 | 2.3 | 2 |  |  |  | 
[O-][n+]1nc(NC2CCCCC2)[n+]([O-])c2ccccc21 | 1.9 | 4.1 | 2.8 | 1.5 | 1.1 |  |  |  | 
O=C(NCCCCCNc1n[n+]([O-])c2ccccc2[n+]1[O-])C(F)(F)F |  |  |  |  |  | 11.7 µM | 11.7 µM | 11.7 µM | 
O=C(NCCCCNc1n[n+]([O-])c2ccccc2[n+]1[O-])C(F)(F)F |  |  |  |  |  | 11.7 µM | 11.7 µM | 11.7 µM | 
O=[N+]([O-])c1ccc2c(c1)[n+]([O-])nc(NC1CCCCC1)[n+]2[O-] |  |  | 1.6 | 1.07 | 1.68 |  |  |  | 
NCCCCNc1n[n+]([O-])c2ccccc2[n+]1[O-] |  |  |  |  |  | 11.7 µM | 11.7 µM | 11.7 µM | 
O=C(NCCCNc1n[n+]([O-])c2ccccc2[n+]1[O-])C(F)(F)F |  |  |  |  |  | 11.7 µM | 11.7 µM | 11.7 µM | 
[O-][n+]1nc(NCCNc2n[n+]([O-])c3ccccc3[n+]2[O-])nc2ccccc21 |  |  |  |  |  | 11.7 µM | 11.7 µM | 11.7 µM | 

SMILES | Ratio IC50 [2] | Ratio IC50 [3] | Ratio IC50 [4] | Ratio IC50 [5] | Ratio IC50 [6] | IC50 [7] | IC50 [8] | IC50 [9] | further results
Cc1ccc2c(c1)[n+]([O-])nc(Nc1ccccc1)[n+]2[O-] | 2.19 | 1.01 | 5.31 | 1.2 | 2.07 |  |  |  | 
O=[N+]([O-])c1ccc2c(c1)[n+]([O-])nc(Nc1ccccc1)[n+]2[O-] | 1.61 |  | 1.47 |  | 1.44 |  |  |  | 
NCCCCCCCNc1n[n+]([O-])c2ccccc2[n+]1[O-] |  |  |  |  |  | 11.7 µM | 11.7 µM | 11.7 µM | 
NCCNc1n[n+]([O-])c2ccccc2[n+]1[O-] |  |  |  |  |  | 11.7 µM | 11.7 µM | 11.7 µM | 
O=C(NCCCCCCCCNc1n[n+]([O-])c2ccccc2[n+]1[O-])C(F)(F)F |  |  |  |  |  | 11.7 µM | 11.7 µM | 11.7 µM | 
NCCCCCNc1n[n+]([O-])c2ccccc2[n+]1[O-] |  |  |  |  |  | 11.7 µM | 11.7 µM | 11.7 µM | 
O=C(NCCCCCCNc1n[n+]([O-])c2ccccc2[n+]1[O-])C(F)(F)F |  |  |  |  |  | 11.7 µM | 11.7 µM | 11.7 µM | 
[O-][n+]1nc(NCCCNc2n[n+]([O-])c3ccccc3[n+]2[O-])nc2ccccc21 |  |  |  |  |  | 11.7 µM | 11.7 µM | 11.7 µM | 
COc1ccc2c(c1)[n+]([O-])nc(NCC1CCCCC1)[n+]2[O-] | 2.4 | 2.4 | 1.3 | 1 | 2 |  |  |  | 
CCNc1n[n+]([O-])c2cc(C)ccc2[n+]1[O-] | 2.7 | 1 | 1.4 | 2.1 | 1.74 |  |  |  | 
CCCCCCNc1n[n+]([O-])c2ccccc2[n+]1[O-] | 1.3 | 2.8 | 1.7 | 1.19 |  |  |  |  | 
NCCCCCCCCNc1n[n+]([O-])c2ccccc2[n+]1[O-] |  |  |  |  |  | 11.7 µM | 11.7 µM | 11.7 µM | 
NCCCNc1n[n+]([O-])c2ccccc2[n+]1[O-] |  |  |  |  |  | 11.7 µM | 11.7 µM | 11.7 µM | 
Cc1ccc2c(c1)[n+]([O-])nc(NCc1ccccc1)[n+]2[O-] | 3.79 | 1.21 | 8.77 | 2.4 | 2.54 |  |  |  | 
COc1ccc2c(c1)[n+]([O-])nc(NC1CCCCC1)[n+]2[O-] | 2.8 | 2.2 | 2 |  | 1.6 |  |  |  | 
CCCCCCNc1n[n+]([O-])c2cc(C)ccc2[n+]1[O-] | 1.3 | 2.9 | 4.7 | 1.3 |  |  |  |  | 
CCCCCCNc1n[n+]([O-])c2cc(Cl)ccc2[n+]1[O-] | 2.1 | 4 | 2.6 | 1.4 | 1.6 |  |  |  | 
O=[N+]([O-])c1ccc2c(c1)[n+]([O-])nc(NCc1ccccc1)[n+]2[O-] | 1.2 | 1.09 | 1.45 | 1.89 | 1.17 |  |  |  | 
NCCCCCCNc1n[n+]([O-])c2ccccc2[n+]1[O-] |  |  |  |  |  | 11.7 µM | 11.7 µM | 11.7 µM | 
O=C(NCCCCCCCNc1n[n+]([O-])c2ccccc2[n+]1[O-])C(F)(F)F |  |  |  |  |  | 11.7 µM | 11.7 µM | 11.7 µM | 
Cc1ccc2c(c1)[n+]([O-])nc(NC1CCCCC1)[n+]2[O-] | 2 | 7.9 | 2.5 | 1.2 | 1.1 |  |  |  | 
CCCCCCNc1n[n+]([O-])c2cc([N+](=O)[O-])ccc2[n+]1[O-] |  |  | 1.5 | 1.6 | 1.5 |  |  |  | 
O=C(NCCNc1n[n+]([O-])c2ccccc2[n+]1[O-])C(F)(F)F |  |  |  |  |  | 11.7 µM | 11.7 µM | 11.7 µM | 
Nc1n[n+]([O-])c2ccccc2[n+]1[O-] [TIRAPAZAMINE] | 1.7 | 1.1 | 6.6 | 3.8 | 1.8 |  |  |  | 
